Laboratory results taken from PMC10489980, “Design of Potent and Salt-Insensitive Antimicrobial Branched Peptides” (Polymers, 2023).
Residues, ends and D or L forms follow the SMILES beside them.

Assays:
Type in all cases: cell-based
[1] = system: ten test organisms (four Gram-negative bacteria, three Gram-positive bacteria, three fungi)
Excerpt: Ten organisms obtained from the American Type Culture Collection (ATCC; Rockville, MD) were used for antimicrobial assays. Four Gram-negative bacteria included Escherichia coli ATCC 25922, Pseudomonas aeruginosa ATCC 27853, Klebsiella oxytoca ATCC 49131, and Proteus vulgaris ATCC 49132. The three Gram-positive bacteria were Staphylococcus aureus 29213, Micrococcus luteus ATCC 49,732, and Enterococcus faecalis ATCC 29212. The three fungi were Candida albicans ATCC 37092, Candida kefyr ATCC 37095, and Candida tropicalis ATCC 37097. The clinical isolates were obtained from Singapore General Hospital (SGH). […]
Antimicrobial Assays. […] After additional incubation at 37 °C for 16–24 h, the diameter of the clear zone surrounding the wells (colony-free) was measured under a microscope. Antimicrobial activities were expressed in units (0.1 mm = 1 unit), and the MICs (in µM) were determined from the x-intercepts of the dose-response curves. […]
The minimum inhibitory concentrations (MICs) of four series of branched peptides and two standards, tachyplesin-1 and the dendrimer D4R, against four Gram-negative bacteria, three Gram-positive bacteria, and three fungi were determined using a two-stage radial diffusion assay in both low- (without NaCl) and high-salt (with 100 mM NaCl) conditions. […]

[2] = system: Enterococcus faecalis ATCC 29212; conditions: ATCC 29212, radial diffusion assay, triplicates; for MIC, E. faecalis, H-Salt: high-salt (100 mM NaCl); for MIC, E. faecalis, L-Salt: low-salt (without NaCl)
In short: (§1)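 Two-stage radial diffusion: 1–4 × 10^6 CFU/mL organism in underlay gel (10 mM sodium phosphate, 0.03% TSB, 0.02% Tween-20, plus 100 mM NaCl for high-salt). Peptides in seven half-log dilutions diffused 3 h at 37 °C, then 6% TSB agarose overlay, 16–24 h at 37 °C. MIC (µM) taken from x-intercept of clear-zone dose-response.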

[3] = system: Klebsiella oxytoca ATCC 49131; conditions: ATCC 49131, radial diffusion assay, triplicates; for MIC, K. oxytoca, H-Salt: high-salt (100 mM NaCl); for MIC, K. oxytoca, L-Salt: low-salt (without NaCl)
In short: as §1

[4] = system: Escherichia coli ATCC 25922; conditions: ATCC 25922, two-stage radial diffusion assay, 37 °C, x-intercept of dose-response curve, triplicates; for MIC, E. coli, H-Salt: high-salt (underlay gel 10 mM sodium phosphate, 0.03% TSB, 0.02% Tween-20, with 100 mM NaCl); for MIC, E. coli, L-Salt: low-salt (underlay gel 10 mM sodium phosphate, 0.03% TSB, 0.02% Tween-20, without NaCl)
In short: as §1

[5] = system: Candida albicans ATCC 37092; conditions: ATCC 37092, radial diffusion assay, triplicates; for MIC, C. albicans, H-Salt: high-salt (100 mM NaCl); for MIC, C. albicans, L-Salt: low-salt (without NaCl)
In short: as §1

[6] = system: Proteus vulgaris ATCC 49132; conditions: ATCC 49132, radial diffusion assay, triplicates; for MIC, P. vulgaris, H-Salt: high-salt (100 mM NaCl); for MIC, P. vulgaris, L-Salt: low-salt (without NaCl)
In short: as §1

[7] = system: Candida tropicalis ATCC 37097; conditions: ATCC 37097, radial diffusion assay, triplicates; for MIC, C. tropicalis, H-Salt: high-salt (100 mM NaCl); for MIC, C. tropicalis, L-Salt: low-salt (without NaCl)
In short: as §1

[8] = system: Staphylococcus aureus 29213; conditions: strain 29213, radial diffusion assay, triplicates; for MIC, S. aureus, H-Salt: high-salt (100 mM NaCl); for MIC, S. aureus, L-Salt: low-salt (without NaCl)
In short: as §1

[9] = system: Micrococcus luteus ATCC 49,732; conditions: ATCC 49,732, radial diffusion assay, triplicates; for MIC, M. luteus, H-Salt: high-salt (100 mM NaCl); for MIC, M. luteus, L-Salt: low-salt (without NaCl)
In short: as §1

Candida kefyr ATCC 37095 = conditions: ATCC 37095, radial diffusion assay, triplicates; for MIC, C. kefyr, H-Salt: high-salt (100 mM NaCl); for MIC, C. kefyr, L-Salt: low-salt (without NaCl)
In short: as §1

[10] = system: Pseudomonas aeruginosa ATCC 27853; conditions: ATCC 27853, radial diffusion assay, triplicates; for MIC, P. aeruginosa, H-Salt: high-salt (100 mM NaCl); for MIC, P. aeruginosa, L-Salt: low-salt (without NaCl)
In short: as §1

MIC, E. faecalis, H-Salt [2] [µM]	MIC, E. faecalis, L-Salt [2] [µM]	MIC, K. oxytoca, H-Salt [3] [µM]	MIC, K. oxytoca, L-Salt [3] [µM]	MIC, E. coli, H-Salt [4] [µM]	MIC, E. coli, L-Salt [4] [µM]	MIC, C. albicans, H-Salt [5] [µM]	MIC, C. albicans, L-Salt [5] [µM]	MIC, P. vulgaris, H-Salt [6] [µM]	MIC, P. vulgaris, L-Salt [6] [µM]	MIC, C. tropicalis, H-Salt [7] [µM]	MIC, C. tropicalis, L-Salt [7] [µM]	MIC, S. aureus, H-Salt [8] [µM]	MIC, S. aureus, L-Salt [8] [µM]	MIC, M. luteus, H-Salt [9] [µM]	MIC, M. luteus, L-Salt [9] [µM]	MIC, C. kefyr, H-Salt (Candida kefyr ATCC 37095) [µM]	MIC, C. kefyr, L-Salt (Candida kefyr ATCC 37095) [µM]	MIC, P. aeruginosa, H-Salt [10] [µM]	MIC, P. aeruginosa, L-Salt [10] [µM]	Structure (SMILES)	further results
–	–	–	–	–	–	–	–	–	–	–	–	–	–	–	–	–	–	–	–	CC(C)C[C@H](NC(=O)[C@H](CCCNC(=N)N)NC(=O)[C@H](CCCNC(=N)N)NC(=O)[C@@H](N)Cc1ccc(O)cc1)C(=O)NCCCC[C@H](NC(=O)[C@H](CC(C)C)NC(=O)[C@H](CCCNC(=N)N)NC(=O)[C@H](CCCNC(=N)N)NC(=O)[C@@H](N)Cc1ccc(O)cc1)C(=O)NCCCC[C@H](NC(=O)[C@H](CCCCNC(=O)[C@H](CC(C)C)NC(=O)[C@H](CCCNC(=N)N)NC(=O)[C@H](CCCNC(=N)N)NC(=O)[C@@H](N)Cc1ccc(O)cc1)NC(=O)[C@H](CC(C)C)NC(=O)[C@H](CCCNC(=N)N)NC(=O)[C@H](CCCNC(=N)N)NC(=O)[C@@H](N)Cc1ccc(O)cc1)C(N)=O [D4Y] (HELM PEPTIDE1{Y.R.R.L.K.K.[am]}|PEPTIDE2{Y.R.R.L}|PEPTIDE3{Y.R.R.L.K}|PEPTIDE4{Y.R.R.L}$PEPTIDE1,PEPTIDE2,5:R3-4:R2|PEPTIDE3,PEPTIDE4,5:R3-4:R2|PEPTIDE1,PEPTIDE3,6:R3-5:R2$$$V2.0; N-terminus and C-terminus assumed)	MIC in four other organisms, high-salt ([1]; 3 h): < 10 µM; antimicrobial activity under high-salt conditions against six of ten tested organisms ([1]; radial diffusion assay, 1% agarose, 10 mM phosphate buffer with 100 mM NaCl, result in words): inactive
> 500	5.4	6.8	1.6	4.4	0.9	1.4	1.3	23.2	4.7	0.8	1.4	4.8	6.7	2.0	2.1	0.8	0.8	4.0	4.4	CC(=O)NCCC[C@H](NC(=O)[C@H](CCCNC(=N)N)NC(=O)[C@H](Cc1ccc(O)cc1)NC(=O)[C@H](CC(C)C)NC(=O)[C@@H](N)CCCNC(=N)N)C(=O)NCCC[C@H](NC(=O)[C@H](CCCNC(=N)N)NC(=O)[C@H](Cc1ccc(O)cc1)NC(=O)[C@H](CC(C)C)NC(=O)[C@@H](N)CCCNC(=N)N)C(=O)NCCC[C@H](NC(=O)[C@H](CCCNC(=N)N)NC(=O)[C@H](Cc1ccc(O)cc1)NC(=O)[C@H](CC(C)C)NC(=O)[C@@H](N)CCCNC(=N)N)C(=O)NCCC[C@H](NC(=O)[C@H](CCCNC(=N)N)NC(=O)[C@H](Cc1ccc(O)cc1)NC(=O)[C@H](CC(C)C)NC(=O)[C@@H](N)CCCNC(=N)N)C(N)=O [iO4R] (HELM PEPTIDE1{R.L.Y.R.[Orn]}|PEPTIDE2{[ac]}|PEPTIDE3{R.L.Y.R.[Orn]}|PEPTIDE4{R.L.Y.R.[Orn]}|PEPTIDE5{R.L.Y.R.[Orn].[am]}$PEPTIDE1,PEPTIDE2,5:R3-1:R2|PEPTIDE1,PEPTIDE3,5:R2-5:R3|PEPTIDE3,PEPTIDE4,5:R2-5:R3|PEPTIDE4,PEPTIDE5,5:R2-5:R3$$$V2.0)	–
> 500	6.6	2.4	1.8	4.1	0.7	1.6	1.4	2.2	5.6	1.5	1.4	2.0	7.3	6.9	1.8	0.8	0.7	4.8	2.1	CC(=O)N[C@@H](CCCNC(=O)[C@H](CCCNC(=N)N)NC(=O)[C@H](Cc1ccc(O)cc1)NC(=O)[C@H](CC(C)C)NC(=O)[C@@H](N)CCCNC(=N)N)C(=O)N[C@@H](CCCNC(=O)[C@H](CCCNC(=N)N)NC(=O)[C@H](Cc1ccc(O)cc1)NC(=O)[C@H](CC(C)C)NC(=O)[C@@H](N)CCCNC(=N)N)C(=O)N[C@@H](CCCNC(=O)[C@H](CCCNC(=N)N)NC(=O)[C@H](Cc1ccc(O)cc1)NC(=O)[C@H](CC(C)C)NC(=O)[C@@H](N)CCCNC(=N)N)C(=O)N[C@@H](CCCNC(=O)[C@H](CCCNC(=N)N)NC(=O)[C@H](Cc1ccc(O)cc1)NC(=O)[C@H](CC(C)C)NC(=O)[C@@H](N)CCCNC(=N)N)C(N)=O [O4R]	–
